Starred links: 1 amine or outer side, 2 acyl side, 3 side chain; linkers in the order of their positions; H or OH if unused. Non-standard residues stand in square brackets, D forms with d. Residues, ends and D or L forms follow the SMILES beside them. Groups on a side chain read outwards from the residue. X3 = N=C(NCCC[C@H](N[*:1])C(=O)[*:2])N1CCCCC1; X2 = CCN(CC)C(=N)NCCC[C@H](N[*:1])C(=O)[*:2]; X4 = N=C(NCCC[C@H](N[*:1])C(=O)[*:2])N1CCCC1; X5 = CN(C)C(=N)NCCCC[C@H](N[*:1])C(=O)[*:2]; X6 = CCN(C)C(=N)NCCC[C@H](N[*:1])C(=O)[*:2]; X1 = CN(C)C(=N)NCC[C@H](N[*:1])C(=O)[*:2]; Lys(Me3) = C[N+](C)(C)CCCC[C@H](N)C(=O)O; Orn = NCCC[C@H](N)C(=O)O; CO = O=C([*:1])[*:2]
Columns and labels:
Spindlin1 (SPIN1_49-262) = molecular target: T1, Spindlin1 (SPIN1_49-262) (Homo sapiens, UniProt Q9Y657); assay: Isothermal titration calorimetry of 15-mer H3K4me3X8 peptides binding to Spindlin1; settings: ITC; for ΔH° / −TΔS°: 25.0 °C, 20 mM Tris, 100 mM NaCl pH 8.0, mean ± SD of 3 repeated ITC experiments
T1 construct: SPIN1_49-262 was expressed and purified as described previously; His tag; made in house; host or cells: E. coli BL21
Experimental: Spindlin1 was dialysed against ITC buffer containing 100 mM NaCl and 20 mM Tris HCl buffer (pH 8.0).
SPIN1_49-262 was expressed and purified as described previously. Briefly, His-tagged SPIN1 was expressed in E.coli strain BL21 at 37 °C until OD600 = 2.0. Protein expression was induced by the addition of 0.1 mM IPTG, followed by incubation at 18 °C overnight. Bacteria were harvested by centrifugation and subsequent resuspension of the pellet in buffer containing 50 mM Hepes pH 7.5, 500 mM NaCl, 10 mM Imidazole, 5% glycerol, 0.5 mM TCEP, and a protease inhibitor cocktail (Sigma, St. Louis, MO, USA). After lysis and centrifugation, His-tagged SPIN1 was affinity purified by Ni^2+-NTA-agarose chromatography (Cytiva, Marlborough, MA, USA) applying a gradient of imidazole. Subsequent size exclusion chromatography (Superdex 75, Cytiva) was performed with buffer containing 10 mM Hepes pH 7.5, 500 mM NaCl, 5% glycerol, and 0.5 mM TCEP.
Isothermal titration calorimetry was performed at 25 °C on a fully automated Microcal Auto-iTC200 (GE Healthcare Life Sciences, Marlborough, MA, USA). SPIN1_49-262 was dialysed against ITC buffer containing 20 mM Tris, 100 mM NaCl pH 8.0. Titrations were carried out with an initial injection of 0.5 μL, followed by 19 injections of 2 μL at a total concentration of 20 μM SPIN1_49-262 and 150-370 μM peptide. Fitting and analyses of the acquired titration curves were performed with Origin 6.0 (Microcal Inc., Northampton, MA, USA) using the One Set of Binding Sites model.

[1] = molecular target: H3K4me3K9me3 peptide (Homo sapiens) (UniProt P68431); settings: cited from earlier work
[2] = molecular target: H3K4me3R8me1 peptide (Homo sapiens) (UniProt P68431); settings: cited from earlier work
[3] = molecular target: H3K4me3R8me2s peptide (Homo sapiens) (UniProt P68431); settings: cited from earlier work
[4] = molecular target: H3K4me3R8me2a 10-mer peptide (Homo sapiens) (UniProt P68431); settings: cited from earlier work
[5] = molecular target: H4K20me3 peptide (Homo sapiens) (UniProt P62805); settings: cited from earlier work

T1 sequence (Q9Y657 49-262): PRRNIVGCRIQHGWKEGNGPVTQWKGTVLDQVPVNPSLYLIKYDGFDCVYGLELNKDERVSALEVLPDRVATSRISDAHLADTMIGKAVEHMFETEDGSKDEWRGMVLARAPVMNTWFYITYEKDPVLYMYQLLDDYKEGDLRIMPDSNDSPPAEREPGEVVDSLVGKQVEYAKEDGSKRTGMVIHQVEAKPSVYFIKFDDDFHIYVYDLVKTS
Spindlin1, sequence (Q9Y657 whole entry): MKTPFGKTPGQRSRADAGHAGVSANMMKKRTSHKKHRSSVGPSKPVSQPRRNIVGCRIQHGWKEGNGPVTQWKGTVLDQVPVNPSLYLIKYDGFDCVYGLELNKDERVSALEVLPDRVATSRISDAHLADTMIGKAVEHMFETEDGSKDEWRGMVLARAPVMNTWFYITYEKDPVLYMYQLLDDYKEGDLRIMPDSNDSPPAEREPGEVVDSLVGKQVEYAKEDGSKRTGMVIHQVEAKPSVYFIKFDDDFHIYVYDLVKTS

| Molecule | ΔH° (Spindlin1 (SPIN1_49-262); SD) [kcal/mol] | −TΔS° (Spindlin1 (SPIN1_49-262); SD) [kcal/mol] | also measured |
| --- | --- | --- | --- |
| C[C@H](N)C(=O)N[C@@H](CCCNC(=N)N)C(=O)N[C@H](C(=O)N[C@@H](CCCC[N+](C)(C)C)C(=O)N[C@@H](CCC(N)=O)C(=O)N[C@H](C(=O)N[C@@H](C)C(=O)N[C@@H](CCCNC(=O)N(C)C)C(=O)N[C@@H](CCCCN)C(=O)N[C@@H](CO)C(=O)N[C@H](C(=O)NCC(=O)NCC(=O)N[C@@H](CCCCN)C(=O)N[C@@H](C)C(N)=O)[C@@H](C)O)[C@@H](C)O)[C@@H](C)O [H3K4me3Cit8me2] (H-ART[Lys(Me3)]QTA[Orn]([CO-NMe2])KSTGGKA-NH2) | -15.6 ± 0.3 | 5.9 ± 0.2 | ΔΔH° (Spindlin1 (SPIN1_49-262); relative to H3K4me3R8me2a): 1.7 kcal/mol; −TΔΔS° (Spindlin1 (SPIN1_49-262); relative to H3K4me3R8me2a): -1.1 kcal/mol |
| CCN(CC)C(=N)NCCC[C@H](NC(=O)[C@H](C)NC(=O)[C@@H](NC(=O)[C@H](CCC(N)=O)NC(=O)[C@H](CCCC[N+](C)(C)C)NC(=O)[C@@H](NC(=O)[C@H](CCCNC(=N)N)NC(=O)[C@H](C)N)[C@@H](C)O)[C@@H](C)O)C(=O)N[C@@H](CCCCN)C(=O)N[C@@H](CO)C(=O)N[C@H](C(=O)NCC(=O)NCC(=O)N[C@@H](CCCCN)C(=O)N[C@@H](C)C(N)=O)[C@@H](C)O [H3K4me3R8et2a] (H-ART[Lys(Me3)]QTA[X2]KSTGGKA-NH2) | -19.3 ± 0.6 | 9.3 ± 0.6 |  |
| CCN(C)C(=N)NCCC[C@H](NC(=O)[C@H](C)NC(=O)[C@@H](NC(=O)[C@H](CCC(N)=O)NC(=O)[C@H](CCCC[N+](C)(C)C)NC(=O)[C@@H](NC(=O)[C@H](CCCNC(=N)N)NC(=O)[C@H](C)N)[C@@H](C)O)[C@@H](C)O)C(=O)N[C@@H](CCCCN)C(=O)N[C@@H](CO)C(=O)N[C@H](C(=O)NCC(=O)NCC(=O)N[C@@H](CCCCN)C(=O)N[C@@H](C)C(N)=O)[C@@H](C)O [H3K4me3R8etme] (H-ART[Lys(Me3)]QTA[X6]KSTGGKA-NH2) | -20.8 ± 0.6 | 11.2 ± 0.6 |  |
| C[C@H](N)C(=O)N[C@@H](CCCNC(=N)N)C(=O)N[C@H](C(=O)N[C@@H](CCCC[N+](C)(C)C)C(=O)N[C@@H](CCC(N)=O)C(=O)N[C@H](C(=O)N[C@@H](C)C(=O)N[C@@H](CCCCNC(=N)N(C)C)C(=O)N[C@@H](CCCCN)C(=O)N[C@@H](CO)C(=O)N[C@H](C(=O)NCC(=O)NCC(=O)N[C@@H](CCCCN)C(=O)N[C@@H](C)C(N)=O)[C@@H](C)O)[C@@H](C)O)[C@@H](C)O [H3K4me3hR8me2a] (H-ART[Lys(Me3)]QTA[X5]KSTGGKA-NH2) | -20.9 ± 0.7 | 11.0 ± 0.7 |  |
| C[C@H](N)C(=O)N[C@@H](CCCNC(=N)N)C(=O)N[C@H](C(=O)N[C@@H](CCCC[N+](C)(C)C)C(=O)N[C@@H](CCC(N)=O)C(=O)N[C@H](C(=O)N[C@@H](C)C(=O)N[C@@H](CCNC(=N)N(C)C)C(=O)N[C@@H](CCCCN)C(=O)N[C@@H](CO)C(=O)N[C@H](C(=O)NCC(=O)NCC(=O)N[C@@H](CCCCN)C(=O)N[C@@H](C)C(N)=O)[C@@H](C)O)[C@@H](C)O)[C@@H](C)O [H3K4me3nR8me2a] (H-ART[Lys(Me3)]QTA[X1]KSTGGKA-NH2) | -16.9 ± 1.3 | 6.8 ± 1.2 |  |
| Spindlin1 (from UniProt Q9Y657) |  |  | Kd [1]: 16 nM; Kd [2]: 139 nM; Kd [3]: 66 nM; Kd [4]: 45 nM; Kd [5]: 800 nM |

Second part, led by results:

| ΔH° (Spindlin1 (SPIN1_49-262); SD) [kcal/mol] | −TΔS° (Spindlin1 (SPIN1_49-262); SD) [kcal/mol] | Molecule | also measured |
| --- | --- | --- | --- |
| -17.3 ± 1.9 | 7.0 ± 1.9 | C[C@H](N)C(=O)N[C@@H](CCCNC(=N)N)C(=O)N[C@H](C(=O)N[C@@H](CCCC[N+](C)(C)C)C(=O)N[C@@H](CCC(N)=O)C(=O)N[C@H](C(=O)N[C@@H](C)C(=O)N[C@@H](CCCNC(=N)N(C)C)C(=O)N[C@@H](CCCCN)C(=O)N[C@@H](CO)C(=O)N[C@H](C(=O)NCC(=O)NCC(=O)N[C@@H](CCCCN)C(=O)N[C@@H](C)C(N)=O)[C@@H](C)O)[C@@H](C)O)[C@@H](C)O [H3K4me3R8me2a] | ΔH° (Spindlin1 (SPIN1_49-262)): -17.3 kcal/mol; −TΔS° (Spindlin1 (SPIN1_49-262)): 7.0 kcal/mol |
| -20.9 ± 0.3 | 11.2 ± 0.1 | C[C@H](N)C(=O)N[C@@H](CCCNC(=N)N)C(=O)N[C@H](C(=O)N[C@@H](CCCC[N+](C)(C)C)C(=O)N[C@@H](CCC(N)=O)C(=O)N[C@H](C(=O)N[C@@H](C)C(=O)N[C@@H](CCCNC(=N)N1CCCCC1)C(=O)N[C@@H](CCCCN)C(=O)N[C@@H](CO)C(=O)N[C@H](C(=O)NCC(=O)NCC(=O)N[C@@H](CCCCN)C(=O)N[C@@H](C)C(N)=O)[C@@H](C)O)[C@@H](C)O)[C@@H](C)O [H3K4me3R8pip] (H-ART[Lys(Me3)]QTA[X3]KSTGGKA-NH2) |  |
| -22.5 ± 0.4 | 13.0 ± 0.5 | C[C@H](N)C(=O)N[C@@H](CCCNC(=N)N)C(=O)N[C@H](C(=O)N[C@@H](CCCC[N+](C)(C)C)C(=O)N[C@@H](CCC(N)=O)C(=O)N[C@H](C(=O)N[C@@H](C)C(=O)N[C@@H](CCCNC(=N)N1CCCC1)C(=O)N[C@@H](CCCCN)C(=O)N[C@@H](CO)C(=O)N[C@H](C(=O)NCC(=O)NCC(=O)N[C@@H](CCCCN)C(=O)N[C@@H](C)C(N)=O)[C@@H](C)O)[C@@H](C)O)[C@@H](C)O [H3K4me3R8pyr] (H-ART[Lys(Me3)]QTA[X4]KSTGGKA-NH2) |  |

From paper PMC8838590, “Recognition of Dimethylarginine Analogues by Tandem Tudor Domain Protein Spindlin1” (Molecules, 2022)
